In PubChem BioAssay (NCI):
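Grown in 96-well plates, cells were treated for 48 hours with each compound at five concentrations. Insufficient inhibition: endpoint recorded as highest concentration tested. At the GI50, growth is halved. At the TGI there is no net growth.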

Legend:
Experiment in all cases: growth of human tumour cells (NCI), 48 h
[1] = tested on: UO-31 renal
[2] = tested on: UACC-257 melanoma
[3] = tested on: MOLT-4 leukemia
[4] = tested on: M14 melanoma
[5] = tested on: RPMI-8226 leukemia
[6] = tested on: SNB-19 CNS
[7] = tested on: SF-295 CNS
[8] = tested on: NCI-H23 lung
[9] = tested on: HS 578T breast
[10] = tested on: HOP-92 NSCLC
[11] = tested on: HOP-62 NSCLC
[12] = tested on: MDA-MB-231 breast
[13] = tested on: SK-MEL-2 melanoma
[14] = tested on: LOX IMVI melanoma
[15] = tested on: NCI/ADR-RES ovarian
[16] = tested on: EKVX NSCLC
[17] = tested on: OVCAR-5 ovarian
[18] = tested on: TK-10 renal
[19] = tested on: HL-60(TB) leukemia
[20] = tested on: U251 CNS
[21] = tested on: SF-539 CNS
[22] = tested on: HCC-2998 colon
[23] = tested on: SR leukemia
[24] = tested on: MDA-MB-435
[25] = tested on: HCT-116 colon
[26] = tested on: BT-549 breast
[27] = tested on: OVCAR-3 ovarian
[28] = tested on: UACC-62 melanoma
[29] = tested on: PC-3 prostate
[30] = tested on: T-47D breast
[31] = tested on: IGROV1 ovarian
[32] = tested on: HCT-15 colon
[33] = tested on: NCI-H226 lung
[34] = tested on: SK-OV-3 ovarian
[35] = tested on: SK-MEL-28 melanoma
[36] = tested on: DU-145 prostate
[37] = tested on: CCRF-CEM leukemia
[38] = tested on: A498 renal
[39] = tested on: ACHN renal
[40] = tested on: OVCAR-4 ovarian
[41] = tested on: SF-268 CNS
[42] = tested on: MALME-3M melanoma
[43] = tested on: A549 NSCLC
[44] = tested on: COLO 205 colon
[45] = tested on: NCI-H460 lung
[46] = tested on: SNB-75 CNS
[47] = tested on: 786-0 renal
[48] = tested on: MCF7 breast
[49] = tested on: RXF 393 renal
[50] = tested on: HT29 colon
[51] = tested on: SK-MEL-5 melanoma
[52] = tested on: CAKI-1 renal
[53] = tested on: SW-620 colon
[54] = tested on: OVCAR-8 ovarian
[55] = tested on: NCI-H522 lung
[56] = tested on: KM12 colon
[57] = tested on: K-562 leukemia
[58] = tested on: SN12C renal

SMILES: Cc1nc2cc(-n3c(-c4ccc(F)cc4)nc4ccccc4c3=O)ccc2n1Cc1ccccc1
- GI50 [1]: 2.15 µM
- TGI [1]: 8.42 µM
- GI50 [2]: 2.64 µM
- TGI [2]: 6.68 µM
- GI50 [3]: 3.52 µM
- TGI [3]: > 100 µM
- GI50 [4]: 2.13 µM
- TGI [4]: 4.62 µM
- GI50 [5]: 5.58 µM
- TGI [5]: 39.7 µM
- GI50 [6]: 4.57 µM
- TGI [6]: 26.8 µM
- GI50 [7]: 2.32 µM
- TGI [7]: 5.73 µM
- GI50 [8]: 4.23 µM
- TGI [8]: 37.6 µM
- GI50 [9]: 2.68 µM
- TGI [9]: 8.6 µM
- GI50 [10]: 2.47 µM
- TGI [10]: 8.25 µM
- GI50 [11]: 2.44 µM
- TGI [11]: 6.98 µM
- GI50 [12]: 1.91 µM
- TGI [12]: 5.09 µM
- GI50 [13]: 2.32 µM
- TGI [13]: 8.6 µM
- GI50 [14]: 1.97 µM
- TGI [14]: 4.59 µM
- GI50 [15]: 1.85 µM
- TGI [15]: 4.56 µM
- GI50 [16]: 6.28 µM
- TGI [16]: 49.9 µM
- GI50 [17]: 5.48 µM
- TGI [17]: 24.1 µM
- GI50 [18]: 2.73 µM
- TGI [18]: 7.17 µM
- GI50 [19]: 13 µM
- TGI [19]: > 100 µM
- GI50 [20]: 2.19 µM
- TGI [20]: 5.18 µM
- GI50 [21]: 1.91 µM
- TGI [21]: 3.79 µM
- GI50 [22]: > 100 µM
- TGI [22]: > 100 µM
- GI50 [23]: 2.7 µM
- TGI [23]: > 100 µM
- GI50 [24]: 1.98 µM
- TGI [24]: 4.21 µM
- GI50 [25]: 1.57 µM
- TGI [25]: 3.39 µM
- GI50 [26]: 1.71 µM
- TGI [26]: 3.48 µM
- GI50 [27]: 2.35 µM
- TGI [27]: 5.2 µM
- GI50 [28]: 2.8 µM
- TGI [28]: 9.79 µM
- GI50 [29]: 1.96 µM
- TGI [29]: 5.3 µM
- GI50 [30]: 1.7 µM
- TGI [30]: 4.22 µM
- GI50 [31]: 5.9 µM
- TGI [31]: 31.2 µM
- GI50 [32]: 2.94 µM
- TGI [32]: 11.6 µM
- GI50 [33]: 2.02 µM
- TGI [33]: 6.51 µM
- GI50 [34]: 3.55 µM
- TGI [34]: 13.8 µM
- GI50 [35]: 2 µM
- TGI [35]: 3.94 µM
- GI50 [36]: 2.6 µM
- TGI [36]: 6.95 µM
- GI50 [37]: 8.34 µM
- TGI [37]: > 100 µM
- GI50 [38]: 2.23 µM
- TGI [38]: 11.6 µM
- GI50 [39]: 2.05 µM
- TGI [39]: 4.63 µM
- GI50 [40]: 2.24 µM
- TGI [40]: 5.26 µM
- GI50 [41]: 2.83 µM
- TGI [41]: 10.1 µM
- GI50 [42]: 2.36 µM
- TGI [42]: 5.36 µM
- GI50 [43]: 2.02 µM
- TGI [43]: 4.66 µM
- GI50 [44]: 2.11 µM
- TGI [44]: 5.1 µM
- GI50 [45]: 2.01 µM
- TGI [45]: 4.09 µM
- GI50 [46]: 1.49 µM
- TGI [46]: 3.6 µM
- GI50 [47]: 1.86 µM
- TGI [47]: 3.62 µM
- GI50 [48]: 2.24 µM
- TGI [48]: 5.56 µM
- GI50 [49]: 1.89 µM
- TGI [49]: 4.26 µM
- GI50 [50]: 2.23 µM
- TGI [50]: 4.71 µM
- GI50 [51]: 2.67 µM
- TGI [51]: 9.07 µM
- GI50 [52]: 1.89 µM
- TGI [52]: 4.51 µM
- GI50 [53]: 3.16 µM
- TGI [53]: 19.2 µM
- GI50 [54]: 2.31 µM
- TGI [54]: 6.06 µM
- GI50 [55]: 1.94 µM
- TGI [55]: 6.49 µM
- GI50 [56]: 3.12 µM
- TGI [56]: 15.7 µM

SMILES: O=C(N/N=C\c1c(O)ccc2ccccc12)C1CC1
- GI50 [1]: 0.863 µM
- TGI [1]: 14.9 µM
- GI50 [2]: 3.74 µM
- TGI [2]: 97.1 µM
- GI50 [3]: 3.17 µM
- TGI [3]: > 100 µM
- GI50 [4]: 3.76 µM
- TGI [4]: 56 µM
- GI50 [5]: 7.91 µM
- TGI [5]: > 100 µM
- GI50 [6]: 12.9 µM
- TGI [6]: > 100 µM
- GI50 [7]: 2.26 µM
- TGI [7]: 8.23 µM
- GI50 [8]: 5.94 µM
- TGI [8]: > 100 µM
- GI50 [9]: 17.2 µM
- TGI [9]: > 100 µM
- GI50 [10]: 16.7 µM
- TGI [10]: > 100 µM
- GI50 [11]: 4.34 µM
- TGI [11]: 91.4 µM
- GI50 [12]: 7.5 µM
- TGI [12]: > 100 µM
- GI50 [13]: 18.9 µM
- TGI [13]: > 100 µM
- GI50 [14]: 1.79 µM
- TGI [14]: > 100 µM
- GI50 [15]: 2.76 µM
- TGI [15]: > 100 µM
- GI50 [16]: 2.91 µM
- TGI [16]: > 100 µM
- GI50 [17]: 19.6 µM
- TGI [17]: > 100 µM
- GI50 [18]: 30.4 µM
- TGI [18]: > 100 µM
- GI50 [19]: 1.53 µM
- TGI [19]: > 100 µM
- GI50 [20]: 2.05 µM
- TGI [20]: > 100 µM
- GI50 [21]: 4.48 µM
- TGI [21]: > 100 µM
- GI50 [57]: 3.64 µM
- TGI [57]: > 100 µM
- GI50 [22]: 9.8 µM
- TGI [22]: > 100 µM
- GI50 [23]: 2.55 µM
- TGI [23]: > 100 µM
- GI50 [24]: 11.6 µM
- TGI [24]: > 100 µM
- GI50 [25]: 3.04 µM
- TGI [25]: > 100 µM
- GI50 [26]: 5.78 µM
- TGI [26]: 88.7 µM
- GI50 [27]: 2.2 µM
- TGI [27]: 46 µM
- GI50 [28]: 3.25 µM
- TGI [28]: 22.8 µM
- GI50 [29]: 11.7 µM
- TGI [29]: > 100 µM
- GI50 [30]: 4.9 µM
- TGI [30]: > 100 µM
- GI50 [32]: 1.22 µM
- TGI [32]: > 100 µM
- GI50 [33]: 13.1 µM
- TGI [33]: 84.2 µM
- GI50 [34]: 3.36 µM
- TGI [34]: 67.2 µM
- GI50 [35]: 17.8 µM
- TGI [35]: > 100 µM
- GI50 [36]: 13.4 µM
- TGI [36]: > 100 µM
- GI50 [37]: 0.889 µM
- TGI [37]: > 100 µM
- GI50 [38]: 16.8 µM
- TGI [38]: 52 µM
- GI50 [39]: 2.82 µM
- TGI [39]: > 100 µM
- GI50 [40]: 2.6 µM
- TGI [40]: > 100 µM
- GI50 [41]: 4.1 µM
- TGI [41]: > 100 µM
- GI50 [42]: 7.76 µM
- TGI [42]: 54 µM
- GI50 [43]: 7.13 µM
- TGI [43]: > 100 µM
- GI50 [44]: 11.2 µM
- TGI [44]: 93.8 µM
- GI50 [45]: 3 µM
- TGI [45]: > 100 µM
- GI50 [46]: 6.68 µM
- TGI [46]: 91.1 µM
- GI50 [47]: 5.16 µM
- TGI [47]: > 100 µM
- GI50 [48]: 3.41 µM
- TGI [48]: > 100 µM
- GI50 [49]: 8.91 µM
- TGI [49]: > 100 µM
- GI50 [50]: 13 µM
- TGI [50]: > 100 µM
- GI50 [51]: 3.81 µM
- TGI [51]: > 100 µM
- GI50 [52]: 1.6 µM
- TGI [52]: 8.22 µM
- GI50 [53]: 6.55 µM
- TGI [53]: > 100 µM
- GI50 [54]: 3.12 µM
- TGI [54]: > 100 µM
- GI50 [55]: 5.75 µM
- TGI [55]: > 100 µM
- GI50 [56]: 6.12 µM
- TGI [56]: > 100 µM
- GI50 [58]: 11.7 µM
- TGI [58]: > 100 µM
